Test: Absorption maximum after colour development in a photographic silver halide layer according to Use Example I
Format: physicochemical
Conditions: for Abs.max., first of two maxima (subsidiary maximum) / Abs.max., second of two maxima (absorption maximum): pyrazolone coupling agents
Protocol: The compounds of the formulae which follow are prepared according to methods which are in themselves known, from the corresponding 4-equivalentcoupling agents (the corresponding compounds with hydrogen in the position marked with *, in place of the substituents drawn). With regard to methods of manufacture, compare DT-OS or DT-AS 1,236,332, 2,043,271, 1,547,672 or 1,187,477. Next to the formula, the absorption maximum in nm is specified in each case (see footnote to Table I). ##SPC8##
*)After colour development of the coupling agents in a photographic silve
halide layer according to Use Example I
0.3 mmol of coupling agent of the formula (215) is dissolved in 2.0 ml of tricresyl phosphate/methylene chloride (3:7). The methylene chloride is evaporated off, 6.0 ml of an 8% strength aqueous solution of sodium isopropylnaphthalene-sulphonate, 20.0 ml of 6% strength gelatine solution and 3.4 ml of water are added and the mixture is adjusted to pH 6.5 and emulsified for 5 minutes by means of an ultrasonic apparatus with an output of 100 watt.
5.0 of coupling agent emulsion freshly treated with ultrasonics, 3.3 ml of silver bromide emulsion of pH 6.5, containing 1.4% of silver and 6.0% of gelatine, 2.0 ml of 1% strength aqueous solution of the hardener of the formula [formula] and 1.7 ml of water are mixed with one another and cast at 40°C on a substrated glass plate of size 13 cm × 18 cm. After solidifying at 10° C, the plate is dried in a drying cabinet with circulating air at 32° C.
A strip cut to 4.0 cm × 6.5 cm is exposed to 500 Lux/cm^2 under a step wedge for 2 seconds and is subsequently treated at 24° C as follows: […]

Row | Structure (SMILES) | Abs.max., first of two maxima (subsidiary maximum) [nm] | Abs.max., second of two maxima (absorption maximum) [nm] | Abs.max. (single maximum) [nm]
1 | CCOP(=O)(CCCOc1cccc(NC2=NN(c3c(Cl)cc(Cl)cc3Cl)C(=O)C2)c1)OCC [(403)] | 424 | 526 | 
2 | CCCCC(CC)COP(=O)(CCCOc1cccc(C(=O)Nc2cccc(C(=O)NC3=NN(c4c(Cl)cc(Cl)cc4OC)C(=O)C3)c2)c1)OCC(CC)CCCC (stereo not shown) [(268)] | 438 | 540 | 
3 | CCCCC(CC)COP(=O)(CCCOc1cccc(C(=O)Nc2cccc(C(=O)NC3=NN(c4nc5ccccc5s4)C(=O)C3)c2)c1)OCC(CC)CCCC (stereo not shown) [(259)] | 548 | 583 | 
4 | CCOP(=O)(CCCc1ccc(NC2=NN(c3c(Cl)cc(Cl)cc3Cl)C(=O)C2)cc1)OCC [(408)] | 426 | 530 | 
5 | CCCCOP(=O)(OCCCC)C(CC)OC(=O)c1ccc(NC(=O)CC(=O)c2ccccc2OC)cc1 (stereo not shown) [(142)] |  |  | 435
6 | CCCCOP(=O)(CCCOc1cc(OCCCP(=O)(OCCCC)OCCCC)cc(C(=O)NC2=NN(c3ccc(C#N)cc3)C(=O)C2)c1)OCCCC [(253)] | 440 | 540 | 
7 | CCCCC(CC)COP(=O)(CCCOc1cccc(NC2=NN(c3cccc(Cl)c3)C(=O)C2)c1)OCC(CC)CCCC (stereo not shown) [(413)] | 428 | 533 | 
8 | CC(C)OP(=O)(CCCOc1cc(OCCCP(=O)(OC(C)C)OC(C)C)cc(C(=O)Nc2cccc(C(=O)NC3=NN(c4c(Cl)cc(Cl)cc4Cl)C(=O)C3)c2)c1)OC(C)C [(240)] | 434 | 544 | 
9 | CCOP(=O)(OCC)C(C)(C)NC(=O)c1cccc(NC(=O)CC(=O)c2ccc([N+](=O)[O-])cc2)c1 [(110)] |  |  | 440
10 | CCCCC(CC)COP(=O)(CCCOc1cccc(C(=O)Nc2cccc(NC3=NN(c4c(Cl)cc(Cl)cc4Cl)C(=O)C3)c2)c1)OCC(CC)CCCC (stereo not shown) [(422)] | 426 | 530 | 
11 | COc1ccc(C(=O)C(Cl)C(=O)Nc2ccc(OP(=O)(Oc3ccccc3)C(C)(C)C)cc2)cc1 (stereo not shown) [(146)] |  |  | 437
12 | CCCCOP(=O)(CCCOc1cc(OCCCP(=O)(OCCCC)OCCCC)cc(C(=O)Nc2ccc(C(=O)NC3=NN(c4c(Cl)cc(Cl)cc4Cl)C(=O)C3)cc2)c1)OCCCC [(218)] | 436 | 542 | 
13 | CCCCC(CC)COP(=O)(CCCOc1cccc(OCC(=O)Nc2cccc(C(=O)NC3=NN(c4c(Cl)cc(Cl)cc4Cl)C(=O)C3)c2)c1)OCC(CC)CCCC (stereo not shown) [(270)] | 438 | 544 | 
14 | CCOP(=O)(CCCCCOc1cccc(C(=O)Nc2cccc(C(=O)NC3=NN(c4ccccc4)C(=O)C3)c2)c1)OCC [(227)] | 438 | 532 | 
15 | CC(C)OP(=O)(CCCOc1cccc(C(=O)Nc2ccc(C(=O)NC3=NN(c4c(Cl)cc(Cl)cc4Cl)C(=O)C3)cc2)c1)OC(C)C [(210)] | 434 | 543 | 
16 | CCCCOP(=O)(CCCOc1cc(OCCCP(=O)(OCCCC)OCCCC)cc(C(=O)NC2=NN(c3nc4ccccc4s3)C(=O)C2)c1)OCCCC [(257)] | 430 | 537 | 
17 | CCCCC(CC)COP(=O)(CCCOc1cc(OCCCP(=O)(OCC(CC)CCCC)OCC(CC)CCCC)cc(C(=O)Nc2ccc(C(=O)NC3=NN(c4c(Cl)cc(Cl)cc4Cl)C(=O)C3)cc2)c1)OCC(CC)CCCC (stereo not shown) [(234)] | 434 | 540 | 
18 | CC(C)OP(=O)(OC(C)C)C1(C)CC(NC(=O)c2ccc(Oc3ccccc3)c(NC(=O)CC(=O)c3ccc(Cl)cc3)c2)CC(C)(C)C1 (stereo not shown) [(144)] |  |  | 441

Row | Structure (SMILES) | Abs.max., first of two maxima (subsidiary maximum) [nm] | Abs.max., second of two maxima (absorption maximum) [nm] | Abs.max. (single maximum) [nm]
19 | CCOP(=O)(CCCc1ccc(NC(=O)CC(=O)C(C)(C)C)cc1)OCC [(103)] |  |  | 429
20 | CCCCOP(=O)(CC(=O)Nc1cccc(NC(=O)CC(=O)C(C)(C)C)c1)OCCCC [(105)] |  |  | 436
21 | CCOP(=O)(CCCc1ccc(NC2=NN(c3ccccc3)C(=O)C2)cc1)OCC [(407)] | 429 | 527 | 
22 | COc1ccc(C(=O)NCCCP(=O)(OC(C)C)OC(C)C)cc1NC(=O)CC(=O)c1ccc(Cl)cc1 [(127)] |  |  | 444
23 | CCOP(=O)(CCCOc1cccc(C(=O)Nc2ccc(NC3=NN(c4ccccc4)C(=O)C3)cc2)c1)OCC [(416)] | 426 | 528 | 
24 | CCOP(=O)(CCCOc1ccc(NC2=NN(c3c(Cl)cc(Cl)cc3Cl)C(=O)C2)cc1)OCC [(404)] | 425 | 530 | 
25 | CC(C)OP(=O)(CCCCCOc1cccc(C(=O)Nc2ccc(C(=O)NC3=NN(c4c(Cl)cc(Cl)cc4Cl)C(=O)C3)cc2)c1)OC(C)C [(244)] | 434 | 542 | 
26 | CC(C)OP(=O)(CCCOc1cc(OCCCP(=O)(OC(C)C)OC(C)C)cc(C(=O)Nc2cccc(C(=O)NC3=NN(c4ccccc4)C(=O)C3)c2)c1)OC(C)C [(238)] | 440 | 530 | 
27 | CC(C)OP(=O)(OC(C)C)C1(C)CC(NC(=O)c2ccc(Cl)c(NC(=O)CC(=O)c3ccc(C(C)(C)C)cc3)c2)CC(C)(C)C1 (stereo not shown) [(140)] |  |  | 439
28 | CCCCC(CC)COP(=O)(CCCOc1cccc(C(=O)Nc2cccc(C(=O)CC(=O)Nc3cc(C)ccc3OC)c2)c1)OCC(CC)CCCC (stereo not shown) [(120)] |  |  | 434
29 | CCCCC(CC)COP(=O)(CCCOc1cccc(NC(=O)CC(=O)c2ccccc2)c1)OCC(CC)CCCC (stereo not shown) [(122)] |  |  | 436
30 | CCCCOP(=O)(Cc1ccc(CP(=O)(OCCCC)OCCCC)c(NC(=O)c2ccc(OC)c(NC(=O)CC(=O)c3ccccc3OCC)c2)c1)OCCCC [(137)] |  |  | 425
31 | CCOP(=O)(CCCOc1cccc(C(=O)Nc2cccc(NC3=NN(c4c(Cl)cc(Cl)cc4Cl)C(=O)C3)c2)c1)OCC [(415)] | 426 | 532 | 
32 | CCCCOP(=O)(CCCOc1cccc(C(=O)Nc2ccc(C(=O)NC3=NN(c4c(Cl)cc(Cl)cc4Cl)C(=O)C3)cc2)c1)OCCCC [(211)] | 434 | 543 | 
33 | CCCCC(CC)COP(=O)(CCCOc1cccc(C(=O)Nc2cccc(C(=O)NC3=NN(c4cccc(Cl)c4)C(=O)C3)c2)c1)OCC(CC)CCCC (stereo not shown) [(256)] | 438 | 534 | 
34 | CC(C)CCOP(=O)(CCCc1ccc(NC(=O)CC(=O)c2ccc(Cl)cc2)cc1)OCCC(C)C [(132)] |  |  | 438
35 | CCOP(=O)(CCCCCOc1cccc(C(=O)NC2=NN(c3c(Cl)cc(Cl)cc3Cl)C(=O)C2)c1)OCC [(213)] | 434 | 537 | 

— US3984432A, “Color photographic recording material” (priority 1973, dated 1976)
